From US20170121344A1 (Siga Technologies, Inc., priority 2009, published 2017)
Like-named read-outs stand apart in the source and are kept apart here.

Columns and labels:
DENV-4 = assay: Viral yield assay against DENV-4 in Vero cells; format: cell-based; settings: Dengue virus
Description: (§1) Compounds that were active in the primary screen were tested for activity in viral yield assays. […] Vero cells in 12-well plates were infected with dengue-2 virus at a multiplicity of infection (MOI) of 0.1, treated with compound (or DMSO as a control), incubated at 37° C., harvested 48 hours post infection and titered on Vero cells as described above. The EC50 was calculated through ExcelFit. Activities against other serotypes of dengue virus were determined in a similar way.

DENV-3 = assay: Viral yield assay against DENV-3 in Vero cells; format: cell-based; settings: Dengue virus
Description: as §1

DENV-1 = assay: Viral yield assay against DENV-1 in Vero cells; format: cell-based; settings: Dengue virus
Description: as §1

[1] = test system: Dengue-2 (Strain New Guinea C); assay: Viral yield assay against Dengue-2 in Vero cells; format: cell-based, Dengue virus; settings: Dengue virus, read-out: Activity (EC50 in μM) DENV-2
How it was run: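 Vero cells were infected with dengue virus at an MOI of 0.1, treated with compound or DMSO vehicle, and kept at 37° C. Supernatant virus was harvested 48 hours post infection and titered on Vero cells, with EC50 derived from yield reduction.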

[2] = DENV2, viral yield assay, Vero cells, MOI 0.1, 48 hours post infection

Row | SMILES | EC50 (DENV-4; DENV4, viral yield assay) [µM] | EC50 (DENV-3; DENV3, viral yield assay) [µM] | EC50 (DENV-1; DENV1, viral yield assay) [µM] | EC50 [1, 2] [µM] | EC50 (DENV-4; DENV4) [µM] | EC50 (DENV-3; DENV3) [µM] | EC50 (DENV-1; DENV1) [µM] | EC50 ([1]; DENV2, Vero cells) [µM] | EC50 ([1]; DENV2, Vero, 48 h) [µM]
1 | COc1cccc(-c2ccc3c(N)c(C(=O)Nc4cccc(C(F)(F)F)c4)sc3n2)c1 [Compound 450, 3-amino-6-(3-methoxyphenyl)-N-[3-(trifluoromethyl)phenyl]thieno[2,3-b] pyridine-2-carboxamide] | < 5 | < 5 | < 5 | < 5 | – | – | – | – | –
2 | Nc1c(C(=O)N(CCC(=O)O)c2ccc(Br)cc2)sc2nc(-c3ccc(Cl)cc3)ccc12 [Compound 350, 3-(N-[3-amino-6-(4-chloro-phenyl)thieno [2,3-b]pyridine-2-carbonyl]-4-bromoanilino) propanoic acid] | < 5 | < 5 | < 5 | < 5 | – | – | – | – | –
3 | Nc1c(C(=O)N(c2ccccc2)c2ccccc2)sc2nc3c(cc12)CCCCC3 [Compound 373, 3-amino-N,N-diphenyl-6,7,8,9-tetrahydro-5H-cyclohepta[b]thieno[3,2-e]pyridine-2-carboxamide] | < 5 | < 5 | < 5 | < 5 | – | – | – | – | –
4 | O=C(O)CN(CC(=O)O)c1c(C(=O)Nc2cccc(C(F)(F)F)c2)sc2nc(-c3cccs3)ccc12 [Compound 363, 2-[carboxymethyl-[6-(2-thienyl)-2-[[3-(trifluoromethyl)phenyl]carbamoyl]thieno[2,3-b]pyridin-3-yl]amino]acetic acid] | – | – | – | – | > 25 | > 25 | 5 to 25 | < 5 | –
5 | Nc1c(C(=O)Nc2ccc(Cl)c(Cl)c2)sc2nc(-c3cccs3)ccc12 [Compound 413, 3-amino-N-(3,4-dichlorophenyl)-6-(2-thienyl)thieno[2,3-b]pyridine-2-carboxamide] | < 5 | < 5 | < 5 | < 5 | – | – | – | – | –
6 | NCC(=O)Nc1c(C(=O)Nc2nnc(-c3ccccc3)s2)sc2nc3c(cc12)CCCCC3 [Compound 296, 3-(2-aminoacetamido)-N-(5-phenyl-1,3,4-thiadiazol-2-yl)-6,7,8,9-tetrahydro-5H-cyclohepta[b]thieno[3,2-e]pyridine-2-carboxamide] | – | – | – | – | < 5 | < 5 | < 5 | < 5 | –
7 | CN(C(=O)c1sc2nc(-c3cccs3)ccc2c1N)c1cccc(C(F)(F)F)c1 [Compound 322, 3-amino-N-methyl-6-(2-thienyl)-N-[3-(trifluoromethyl)phenyl]thieno[2,3-b]pyridine-2-carboxamide] | < 5 | < 5 | < 5 | < 5 | – | – | – | – | –
8 | CCc1cccc(NC(=O)c2sc3nc(-c4ccc(F)cc4)ccc3c2N)c1 [Compound 609, 3-amino-N-(3-ethylphenyl)-6-(4-fluorophenyl)thieno[2,3-b]pyridine-2-carboxamide] | 5 to 25 | 5 to 25 | < 5 | < 5 | – | – | – | – | –
9 | CCC(C)c1ccc(NC(=O)c2sc3nc(-c4cccc(OC)c4)ccc3c2N)cc1 (centres unmarked) [Compound 555, 3-amino-6-(3-methoxyphenyl)-N-(4-sec-butylphenyl)thieno[2,3-b]pyridine-2-carboxamide] | < 5 | < 5 | < 5 | < 5 | – | – | – | – | –
10 | Nc1c(C(=O)Nc2ccc(F)c(F)c2)sc2nc(-c3cccs3)ccc12 [Compound 461, 3-amino-N-(3,4-difluorophenyl)-6-(2-thienyl)thieno[2,3-b]pyridine-2-carboxamide] | < 5 | < 5 | < 5 | < 5 | – | – | – | – | –
11 | Nc1c(C(=O)Nc2ccc(F)c(F)c2)sc2nc(-c3cc(Cl)ccc3Cl)ccc12 [Compound 630, 3-amino-6-(2,5-dichlorophenyl)-N-(3,4-difluorophenyl)thieno[2,3-b]pyridine-2-carboxamide] | < 5 | < 5 | < 5 | < 5 | – | – | – | – | –
12 | CN1CCc2nc3sc(C(=O)Nc4ccc(OC(F)(F)F)cc4)c(NCC(=O)O)c3cc2C1 [Compound 303, 2-[[6-methyl-2-[[4-(trifluoromethoxy)phenyl]carbamoyl]-7,8-dihydro-5H-thieno[2,3-b][1,6]naphthyridin-3-yl]amino]acetic acid] | – | – | – | – | < 5 | 5 to 25 | 5 to 25 | < 5 | –
13 | COc1ccc(-c2ccc3c(N)c(C(=O)Nc4ccc(Br)cc4F)sc3n2)cc1OC [Compound 628, 3-amino-N-(4-bromo-2-fluoro-phenyl)-6-(3,4-dimethoxyphenyl)thieno[2,3-b] pyridine-2-carboxamide] | < 5 | < 5 | < 5 | < 5 | – | – | – | – | –
14 | Cc1ccc(NC(=O)c2sc3nc(-c4ccc5c(c4)OCO5)ccc3c2N)c(C)c1 [Compound 596, 3-amino-6-(1,3-benzodioxol-5-yl)-N-(2,4-dimethyphenyl)thieno[2,3-b]pyridine-2-carboxamide] | < 5 | < 5 | < 5 | < 5 | – | – | – | – | –
15 | COc1ccc(NC(=O)c2sc3nc(-c4ccc(Cl)cc4)ccc3c2N)c(OC)c1 [Compound 652, 3-amino-6-(4-chlorophenyl)-N-(2,4-dimethoxyyphenyl)thieno[2,3-b]pyridine-2-carboxamide] | < 5 | < 5 | < 5 | < 5 | – | – | – | – | –
16 | Nc1c(C(=O)Nc2ccc(Cl)nc2)sc2nc(-c3ccc(Cl)cc3)ccc12 [Compound 353, 3-amino-6-(4-chlorophenyl)-N-(6-chloro-3-pyridyl)thieno [2,3-b]pyridine-2-carboxamide] | < 5 | < 5 | < 5 | < 5 | – | – | – | – | –
17 | Nc1c(C(=O)Nc2ccc(OC(F)F)cc2)sc2nc(-c3ccc(Cl)cc3)ccc12 [Compound 340, 3-amino-6-(4-chlorophenyl)-N-[4-(difluoro-methoxy)phe-nyl]thieno[2,3-b]pyridine-2-carboxamide] | < 5 | < 5 | < 5 | < 5 | – | – | – | – | –
18 | O=C(Nc1c(C(=O)Nc2nnc(-c3ccccc3)s2)sc2nc3c(cc12)CCCCC3)c1cccnc1 [Compound 297, 3-(nicotinamido)-N-(5-phenyl-1,3,4-thiadiazol-2-yl)-6,7,8,9-tetrahydro-5H-cyclohepta[b]thieno[3,2-e]pyridine-2-carboxamide] | – | – | – | – | < 5 | < 5 | < 5 | < 5 | –
19 | COc1cccc(-c2ccc3c(N)c(C(=O)Nc4ccc(Br)cc4)sc3n2)c1 [Compound 446, 3-amino-N-(4-bromophenyl)-6-(3-methoxyphenyl)thieno[2,3-b]pyridine-2-carboxamide] | < 5 | < 5 | < 5 | < 5 | – | – | – | – | –
20 | Nc1c(C(=O)Nc2nnc(-c3ccccc3)s2)sc2nc3c(cc12)C(O)CCCC3 (centres unmarked) [Compound 329] | < 5 | 5 to 25 | < 5 | < 5 | – | – | – | – | –
21 | COc1ccc(-c2ccc3c(N)c(C(=O)Nc4ccc(C(F)(F)F)cc4)sc3n2)cc1OC [Compound 475, 3-amino-6-(3,4-dimethoxyphenyl)-N-[4-(trifluoromethyl)phenyl]thieno[2,3-b] pyridine-2-carboxamide] | < 5 | < 5 | < 5 | < 5 | – | – | – | – | –
22 | COc1ccc(-c2ccc3c(N)c(C(=O)Nc4ccc(C)cc4Br)sc3n2)cc1OC [Compound 576, 3-amino-N-(2-bromo-4-methyl-phenyl)-6-(3,4-dimethoxyphenyl)thieno[2,3-b] pyridine-2-carboxamide] | < 5 | < 5 | < 5 | < 5 | – | – | – | – | –
23 | O=C(Nc1c(C(=O)Nc2nnc(-c3ccccc3)s2)sc2nc3c(cc12)CCCCC3)c1ccccn1 [Compound 360, N-(5-phenyl-1,3,4-thiadiazol-2-yl)-3-(picolinamido)-6,7,8,9-tetrahydro-5H-cyclohepta[b]thieno[3,2-e]pyridine-2-carboxamide] | – | – | – | – | < 5 | > 25 | > 25 | < 5 | –
24 | O=C(O)CNc1c(C(=O)Nc2cccc(C(F)(F)F)c2)sc2nc(-c3cccs3)ccc12 [Compound 305, 2-[[6-(2-thienyl)-2-[[3-(trifluoromethyl)phenyl]carbamoyl]thieno[2,3-b]pyridin-3-yl]amino]acetic acid] | – | – | – | – | < 5 | 5 to 25 | < 5 | < 5 | –
25 | Nc1c(C(=O)/N=c2\[nH]c3ccccc3s2)sc2nc(-c3cccs3)ccc12 [Compound 486, (NE)-3-amino-N-(3H-1,3-benzo-thiazol-2-ylidene)-6-(2-thienyl)thieno [2,3-b]pyridine-2-carboxamide] | < 5 | < 5 | < 5 | – | – | – | – | – | < 5
26 | NCCNc1c(C(=O)Nc2nnc(-c3ccccc3)s2)sc2nc3c(cc12)CCCCC3 [Compound 294, 3-((2-aminoethyl)amino)-N-(5-phenyl-1,3,4-thiadiazol-2-yl)-6,7,8,9-tetrahydro-5H-cyclohepta[b]thieno[3,2-e]pyridine-2-carboxamide] | – | – | – | – | < 5 | < 5 | < 5 | < 5 | –
